Values quoted from earlier work as cited in PMC9516332 (Frontiers in Oncology, 2022).
Like-named read-outs stand apart in the source and are kept apart here.

Columns and labels:
[1] = target: panel of 255 wild-type kinases (Homo sapiens, UniProt P49761); details: kinase CLK3, 1 µmol/L single concentration, cited from earlier work
[2] = target: panel of 255 wild-type kinases (Homo sapiens, UniProt Q15375); details: kinase EPHA7, 1 µmol/L single concentration, cited from earlier work
[3] = target: T1, panel of 255 wild-type kinases (Homo sapiens, UniProt Q08881); details: kinase ITK, 1 µmol/L single concentration, cited from earlier work
T1 sequence (Q08881 1-620): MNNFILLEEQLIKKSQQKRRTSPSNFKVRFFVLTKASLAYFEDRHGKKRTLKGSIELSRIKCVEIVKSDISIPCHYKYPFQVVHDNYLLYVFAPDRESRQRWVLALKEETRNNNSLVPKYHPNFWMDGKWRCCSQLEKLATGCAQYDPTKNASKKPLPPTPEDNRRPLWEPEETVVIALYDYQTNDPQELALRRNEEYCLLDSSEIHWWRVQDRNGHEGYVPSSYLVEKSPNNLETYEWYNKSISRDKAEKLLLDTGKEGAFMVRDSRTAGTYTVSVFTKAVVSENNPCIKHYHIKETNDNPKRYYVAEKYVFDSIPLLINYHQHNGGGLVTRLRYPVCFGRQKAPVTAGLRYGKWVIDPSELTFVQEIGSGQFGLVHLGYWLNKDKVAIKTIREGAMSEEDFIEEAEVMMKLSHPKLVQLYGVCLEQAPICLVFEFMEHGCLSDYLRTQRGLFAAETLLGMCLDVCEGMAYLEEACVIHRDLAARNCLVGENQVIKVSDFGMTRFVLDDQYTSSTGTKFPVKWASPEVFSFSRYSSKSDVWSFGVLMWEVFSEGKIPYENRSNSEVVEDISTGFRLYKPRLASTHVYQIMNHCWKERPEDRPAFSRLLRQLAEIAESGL

[4] = target: panel of 255 wild-type kinases (Homo sapiens, UniProt Q06187); details: BTK kinase assay, 1 µmol/L single concentration, cited from earlier work
[5] = target: T2, panel of 255 wild-type kinases (Homo sapiens, UniProt Q13237); details: CGK2 kinase assay, 1 µmol/L single concentration, cited from earlier work
T2 sequence (Q13237 1-762): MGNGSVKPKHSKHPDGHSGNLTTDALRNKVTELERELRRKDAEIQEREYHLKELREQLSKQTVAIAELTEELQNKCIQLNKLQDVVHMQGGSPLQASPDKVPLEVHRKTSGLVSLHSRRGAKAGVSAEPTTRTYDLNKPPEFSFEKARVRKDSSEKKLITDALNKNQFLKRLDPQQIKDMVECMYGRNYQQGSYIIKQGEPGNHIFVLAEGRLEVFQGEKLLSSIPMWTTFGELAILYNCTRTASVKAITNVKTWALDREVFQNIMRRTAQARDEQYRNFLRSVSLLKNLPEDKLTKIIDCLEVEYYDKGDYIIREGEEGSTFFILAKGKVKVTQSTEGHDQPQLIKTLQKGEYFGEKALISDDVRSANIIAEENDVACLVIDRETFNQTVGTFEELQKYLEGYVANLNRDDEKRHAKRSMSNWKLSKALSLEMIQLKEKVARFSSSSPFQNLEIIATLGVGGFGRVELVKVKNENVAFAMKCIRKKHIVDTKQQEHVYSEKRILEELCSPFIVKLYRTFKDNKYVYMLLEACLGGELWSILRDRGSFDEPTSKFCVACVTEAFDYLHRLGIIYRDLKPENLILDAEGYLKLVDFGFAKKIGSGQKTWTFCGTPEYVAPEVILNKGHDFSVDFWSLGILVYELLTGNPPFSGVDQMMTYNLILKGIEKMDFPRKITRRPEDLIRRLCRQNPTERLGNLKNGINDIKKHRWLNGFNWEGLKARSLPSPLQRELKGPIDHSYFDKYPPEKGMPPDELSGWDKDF

[6] = target: panel of 255 wild-type kinases (Homo sapiens, UniProt Q9UPE1); details: MSSK1, 1 µmol/L single concentration, cited from earlier work
[7] = target: panel of 255 wild-type kinases (Homo sapiens, UniProt Q16539); details: p38α, 1 µmol/L single concentration, cited from earlier work
[8] = target: panel of 255 wild-type kinases (Homo sapiens, UniProt Q15418); details: kinase RSK1, 1 µmol/L single concentration, cited from earlier work
[9] = target: panel of 255 wild-type kinases (Homo sapiens, UniProt P11309); details: kinase PIM1, 1 µmol/L single concentration, cited from earlier work
[10] = target: panel of 255 wild-type kinases (Homo sapiens, UniProt Q13554); details: CaMK2β kinase assay, 1 µmol/L single concentration, cited from earlier work
[11] = target: panel of 255 wild-type kinases (Homo sapiens, UniProt Q14289); details: kinase PYK2, 1 µmol/L single concentration, cited from earlier work
[12] = target: panel of 255 wild-type kinases (Homo sapiens, UniProt P35968); details: kinase KDR, 1 µmol/L single concentration, cited from earlier work
[13] = target: panel of 255 wild-type kinases (Homo sapiens, UniProt Q13131); details: AMPKα1/β1/γ1 kinase assay, 1 µmol/L single concentration, cited from earlier work
[14] = ref DOI: 10.1371/journal.pone.0092146
[15] = ref DOI: 10.1158/1535-7163.MCT-18-0877

| SMILES | %-inhibition at 1 µmol/L, CLK3 [1, 15] [%] | %-inhibition at 1 µmol/L, EPHA7 [2, 15] [%] | %-inhibition at 1 µmol/L, ITK [3, 15] [%] | %-inhibition BTK [4, 15] [%] | %-inhibition CGK2 [5, 15] [%] | %-inhibition, MSSK1 [6, 15] [%] | %-inhibition, p38α [7, 15] [%] | %-inhibition at 1 µmol/L, RSK1 [8, 15] [%] | %-inhibition at 1 µmol/L, PIM1 [9, 15] [%] | %-inhibition CaMK2β [10, 15] [%] | %-inhibition at 1 µmol/L, PYK2 [11, 15] [%] | %-inhibition at 1 µmol/L, KDR [12, 15] [%] | %-inhibition AMPKα1/β1/γ1 [13, 15] [%] | further results |
| --- | --- | --- | --- | --- | --- | --- | --- | --- | --- | --- | --- | --- | --- | --- |
| CC(=O)Nc1cccc(-n2c(=O)n(C3CC3)c(=O)c3c(Nc4ccc(I)cc4F)n(C)c(=O)c(C)c32)c1 [trametinib] |  |  |  |  |  |  |  |  |  |  |  |  |  | %-inhibition at 1 µmol/L, CLK3 [1, 14]: -0.0684%; %-inhibition at 1 µmol/L, EPHA7 [2, 14]: -5%; %-inhibition at 1 µmol/L, ITK [3, 14]: -7.56%; %-inhibition BTK [4, 14]: 18%; %-inhibition CGK2 [5, 14]: -2.61%; %-inhibition, MSSK1 [6, 14]: -5%; %-inhibition, p38α [7, 14]: -4%; %-inhibition at 1 µmol/L, RSK1 [8, 14]: -10%; %-inhibition at 1 µmol/L, PIM1 [9, 14]: 4.44%; %-inhibition CaMK2β [10, 14]: 0.738%; %-inhibition at 1 µmol/L, PYK2 [11, 14]: 2.72%; %-inhibition at 1 µmol/L, KDR [12, 14]: -0.549%; %-inhibition AMPKα1/β1/γ1 [13, 14]: -12% |
| CC#CC(=O)N1CCC[C@H]1c1nc(-c2ccc(C(=O)Nc3ccccn3)cc2)c2c(N)nccn12 [acalabrutinib] | -15 | -3.54 | 0.871 | 95 | 1.55 | -5 | -0.752 | 3.57 | -4.28 | -1.09 | -3.55 | 7 | -5 |  |
| C=CC(=O)Nc1cc(Nc2nccc(-c3cn(C)c4ccccc34)n2)c(OC)cc1N(C)CCN(C)C [osimertinib] | 6 | 2.35 | 62 | 84 | 11 | 0.582 | -6 | 42 | -4.4 | 5 | 62 | 46 | -5 |  |
